Results: patent US20090088364A1, “Pharmaceutical composition useful for the treatment of invasive pulmonary aspergillosis” (priority 2004, published 2009)
Entries after “also recorded” stand apart in the source; their conditions may differ.

How the values were obtained:
[1] = test system: A. fumigatus; experiment: Pulmonary fungal load (CFU counts in lung homogenate) in IPA mice; type: in vivo, BALB/c mice; conditions: for fungal load: description
Description: (§1) The survival rates of the MBL treated and untreated mice were monitored for 15 days (FIG. 1). Among the rest of the mice left in each group, two mice were sacrificed each on 4th and 7th day after fungal exposure and lung tissues were collected for histopathology and counting the colony forming units of the fungus (CFUs). For estimating the pulmonary fungal load and hyphae density of the mice, lungs were aseptically removed from each group of mice sacrificed on the 4th and 7th day, after the spore challenge. A portion of the lung tissue (10 mg) was homogenized with a mechanical homogenizer for 1 min in sterile PBS. The suspension was serially diluted 2-fold and incubated in triplicates on Sabouraud Agar (SDA) plates at 37° C. A. fumigatus colonies were counted after 24 hrs incubation and the values represent average±standard deviation of six data points (three from each dilution). The number of Colony forming units (CFUs) that appeared on the plates corresponds to the pulmonary fungal load of different groups. […] The other portion of the lung was kept in 10% formalin for histopathological studies of the lung sections.
For estimating the pulmonary fungal load and hyphae density of the mice, lungs were aseptically removed from each group of mice sacrificed on the 4th and 7th day, after the spore challenge. A portion of the lung tissue (10 mg) was homogenized with a mechanical homogenizer for 1 min in sterile PBS. The suspension was serially diluted 2-fold and incubated in triplicate on Sabauraud Agar (SDA) plates at 37° C. A. fumigatus colonies were counted after 24 hrs incubation and the values represent average±standard deviation of six data points (three from each dilution). The number of Colony forming units (CFUs) that appeared on the plates corresponds to the pulmonary fungal load of different groups.

[2] = test system: A. fumigatus; experiment: Survival of immunosuppressed IPA mice monitored for 15 days; type: in vivo, BALB/c mice; conditions: for survival / survival rate: IPA mice
Procedure: For preparation of animal models of invasive pulmonary aspergillosis, BALB/c mice were divided into various experimental and control groups and subgroups as shown in Table I.
The BALB/c mice were immunosuppressed by three intradermal injections of 2.5 mg of hydrocortisone acetate (Wycort) per 20 g mouse per day 1 day before, the day of, and the day after spore challenge.
On the day of spore challenge (day 0), mice were lightly anesthesized with ether and 10^8 spores of A. fumigatus in 50 μl of sterile saline were administered intranasally in the groups of IPA mice, while 50 μl of saline alone was administered to the untreated control mice. The MBL-treated control and IPA mice received 1 μg of MBL in 50 μl of saline per mouse on day 1, and the groups of untreated control and untreated IPA mice received 50 μl of saline alone intranasally on day 1.
as §1
The animal model of invasive pulmonary aspergillosis is prepared by known methods of the immunosuppression of the mice (Allen et al, 1994) followed by exposure to A. fumigatus spores. The mice were immunosuppressed by three intradermal injections of 2.5 mg of hydrocortisone acetate (Wycort) per 20 g of mouse per day one day before, the day of, and the day after spore challenge (day −1, 0, +1).
On the day of spore challenge (day 0), mice were lightly anesthesized with ether and 10^8 spores of A. fumigatus in 50 μl of sterile saline were administered intranasally in the groups of IPA mice, while 50 μl of saline alone was administered to the untreated control mice.
The administration of different concentrations of purified human rMBL (1-5 µg/mice) in saline intranasally to different groups of mice is described in Table I. The animal models of invasive pulmonary aspergillosis and their respective controls were given treatment with rMBL and amphotericin B. The amphotericin B treated mice acted as the positive control, since amphotericin B is a standard known antifungal agent.
(§2) The 1 µg rMBL-treated control and IPA mice received 1 μg of rMBL in 50 μl of saline per mouse on day 1. Similarly, 3 μg rMBL-treated control and IPA mice received 3 μg of rMBL in 50 μl of saline per mouse on day 1 and 5 µg rMBL-treated control and IPA mice received 5 μg of rMBL in 50 μl of saline per mouse on day 1. The AmB-treated control and IPA mice received AmB (134.6 μg) only on day 1. The groups of untreated control and untreated IPA mice received 50 μl of saline without rMBL intranasally on day 1.
(§3) Different groups of mice were monitored for 15 days for survival and thereby their survival rate was calculated.

[3] = test system: A. fumigatus; experiment: Fungal hyphae density in lung sections (histopathology) of IPA mice; type: in vivo, BALB/c mice; conditions: for fungal hyphae density compared to untreated IPA mice: FIG. 3, histopathology of lung sections
Description: as §1
For visualization of the fungal hyphae in the lungs of the mice, a portion of the lungs collected from the mice sacrificed on 4th and 7th day from treated and untreated groups after spore challenge and trimmed of extraneous tissue was kept in 10% formalin for histopathological studies and stored at 4° C. The tissue sections, made using a microtome and stained with hematoxylin and eosin, were examined at the magnification of 40×.

[4] = Survival of immunosuppressed control mice that received no spores; type: in vivo, BALB/c mice
Procedure: as §2, §3

[5] = test system: A. fumigatus conidia; conditions: in vitro, purified human MBL; cited from earlier work
[6] = Example 6, PBS pH 7.2, treated with AmB or rMBL
[7] = Example 7, PBS pH 7.4, treated with AmB or rMBL
[8] = Example 8, TBS pH 7.6, treated with AmB or rMBL
[9] = Example 9, TBS pH 8.0, treated with AmB or rMBL
[10] = Example 6, PBS pH 7.2, rMBL 1-5 μg/mice
[11] = Example 8, TBS pH 7.6, rMBL 1-5 μg/mice
[12] = Example 9, TBS pH 8.0, rMBL 1-5 ug/mice

In the case of `C[C@@H]1[C@H](O)[C@@H](C)/C=C/C=C/C=C/C=C/C=C/C=C/C=C/[C@H](O[C@@H]2O[C@H](C)[C@@H](O)[C@H](N)[C@@H]2O)C[C@@H]2O[C@](O)(C[C@@H](O)C[C@@H](O)[C@H](O)CC[C@@H](O)C[C@@H](O)CC(=O)O[C@H]1C)C[C@H](O)[C@H]2C(=O)O` [AmB, Amphotericin B, reference compound], the “CFUs in the lung homogenates” value ([1]; Example 7, PBS pH 7.4, 4th day after spore challenge, AmB 134.6 μg) is reported as 5.65±0.07 CFUs×10^6/gm of lung tissue, the fungal load ([1]; FIG. 2, amphotericin B treated IPA mice) is reported as 5.65±0.07 CFUs×10^6/gm of lung tissue and the survival ([2]; Example 6, PBS pH 7.2, AmB 134.6 μg on day 1) is reported as 80%. For the same compound, the survival ([2]; Example 7, PBS pH 7.4, AmB 134.6 μg on day 1) was 80%, the survival ([2]; Example 8, TBS pH 7.6, AmB 134.6 μg on day 1) was 80% and the survival ([2]; Example 9, TBS pH 8.0, AmB 134.6 μg on day 1) was 80%. For the same compound, the survival rate ([2]; FIG. 1, amphotericin B (134.6 μg) on day 1) was 80%, the “fungal hyphae density compared to untreated IPA mice” value [3] was “decreases; also recorded: drastic decrease” and the “survival of control mice” value [4, 6] was 100%. For the same compound, the “survival of control mice” value [4, 7] was 100%, the “survival of control mice” value [4, 8] was 100% and the “survival of control mice” value [4, 9] was 100%.
In the case of “rMBL: purified human recombinant mannan-binding lectin (MBL) protein, in solution form produced by recombinant technology”, the “pulmonary fungal load compared to untreated IPA mice” value [1, 10] is reported as “reduction”, the “CFUs in the lung homogenates” value ([1]; Example 7, PBS pH 7.4, 4th day after spore challenge, 1 μg rMBL) is reported as 4.6±0.5 CFUs×10^6/gm of lung tissue and the “CFUs in the lung homogenates” value ([1]; Example 7, PBS pH 7.4, 4th day after spore challenge, 3 μg rMBL) is reported as 4.2±0.4 CFUs×10^6/gm of lung tissue. For the same compound, the “CFUs in the lung homogenates” value ([1]; Example 7, PBS pH 7.4, 4th day after spore challenge, 5 μg rMBL) was 6.4±0.5 CFUs×10^6/gm of lung tissue, the “pulmonary fungal load compared to untreated IPA mice” value ([1]; Example 7, PBS pH 7.4, rMBL 1-5 μg/mice) was “reduction” and the “pulmonary fungal load compared to untreated IPA mice” value [1, 11] was “reduction”. The “pulmonary fungal load compared to untreated IPA mice” value [1, 12] was “reduction”, the “pulmonary fungal load, CFU counts” value ([1]; FIG. 2, 4th day after spore challenge, 3 µg MBL treated IPA mice) was 4.2±0.4 CFU counts per gram of the lung tissue and the fungal load ([1]; FIG. 2, 1 µg MBL treated IPA mice) was 4.6±0.5 CFUs×10^6/gm of lung tissue. The fungal load ([1]; FIG. 2, 3 µg MBL treated IPA mice) was 4.2±0.4 CFUs×10^6/gm of lung tissue, the survival ([2]; Example 6, PBS pH 7.2, 1 μg rMBL intranasally day 1) was 80% and the survival ([2]; Example 6, PBS pH 7.2, 3 μg rMBL intranasally day 1) was 80%. The survival ([2]; Example 6, PBS pH 7.2, 5 μg rMBL intranasally day 1) was 40%, the “percentage of survival, change in treated IPA mice” value (shortened to “percentage of survival, change”) [2, 10] was “increase” and the survival ([2]; Example 7, PBS pH 7.4, 1 μg rMBL intranasally day 1) was 80%. The survival ([2]; Example 7, PBS pH 7.4, 5 μg rMBL intranasally day 1) was 40%, the “percentage of survival, change” value ([2]; Example 7, PBS pH 7.4, rMBL 1-5 μg/mice, FIG. 1) was “increase” and the survival ([2]; Example 8, TBS pH 7.6, 1 μg rMBL intranasally day 1) was 80%. For the same compound, the survival ([2]; Example 8, TBS pH 7.6, 5 μg rMBL intranasally day 1) was 40%, the “percentage of survival, change” value [2, 11] was “increase” and the survival ([2]; Example 9, TBS pH 8.0, 1 μg rMBL intranasally day 1) was 80%. The survival ([2]; Example 9, TBS pH 8.0, 5 μg rMBL intranasally day 1) was 40%, the “percentage of survival, change” value [2, 12] was “increase” and the survival rate ([2]; FIG. 1, 1 µg MBL intranasally on day 1) was 80%. The survival rate ([2]; FIG. 1, 3 µg MBL intranasally on day 1) was 80%, the “fungal hyphae density in the lungs compared to untreated IPA mice” value ([3]; Example 6, PBS pH 7.2) was “decrease” and the “fungal hyphae density in the lungs compared to untreated IPA mice” value ([3]; Example 7, PBS pH 7.4, FIG. 3) was “decrease”. For the same compound, the “fungal hyphae density in the lungs compared to untreated IPA mice” value ([3]; Example 8, TBS pH 7.6) was “decrease”, the “fungal hyphae density in the lungs compared to untreated IPA mice” value ([3]; Example 9, TBS pH 8.0) was “decrease” and the “fungal hyphae density compared to untreated IPA mice” value ([3]; listed as MBL) was “decreases; also recorded: drastic decrease”. The “survival of control mice” value [4, 6] was 100%, the “survival of control mice” value [4, 7] was 100% and the “survival of control mice” value [4, 8] was 100%. For the same compound, the “survival of control mice” value [4, 9] was 100% and the “concentration range that most effectively mediates the killing of the fungus” value [5] was 1 to 5 µg/mL.
